Values after ≈ are worked out from the molar mass of the structure shown.
Experiments:
[1] = target: STE20-like serine/threonine-protein kinase (Homo sapiens) (UniProt Q9H2G2); assay: Inhibition of recombinant human full length N-terminal GST-tagged SLK expressed in baculovirus infected Sf9 cells assessed as change in enzyme activity at 1 uM in presence of 2 uM ATP relative to control; design: scale not given: the % may be the effect or the level left
[2] = target: Cytoplasmic tyrosine-protein kinase BMX (Homo sapiens, UniProt P51813); assay: Inhibition of human BMX
[3] = target: Mitogen-activated protein kinase 3 (Homo sapiens) (UniProt P27361); assay: Inhibition of recombinant human full length ERK1 assessed as change in enzyme activity at 1 uM in presence of 1 uM ATP relative to control; design: scale not given: the % may be the effect or the level left
[4] = Equilibrium aqueous solubility of the compound at pH 7.4; type: physicochemical
[5] = target: Mitogen-activated protein kinase kinase kinase 1 (Homo sapiens) (UniProt Q13233); assay: Inhibition of recombinant human N-terminal GST-tagged MEKK1 ([…] residues) expressed in baculovirus infected Sf9 cells assessed as change in enzyme activity at 1 uM in presence of 2 uM ATP relative to control; design: scale not given: the % may be the effect or the level left
[6] = target: Dual specificity mitogen-activated protein kinase kinase 1 (Homo sapiens) (UniProt Q02750); assay: Inhibition of recombinant full length N-terminal GST-tagged MEK1 (unknown origin) assessed as change in enzyme activity at 1 uM in presence of 1 uM ATP relative to control; design: scale not given: the % may be the effect or the level left
[7] = target: Calcium/calmodulin-dependent protein kinase type IV (Homo sapiens) (UniProt Q16566); assay: Inhibition of recombinant human full length N-terminal GST-tagged CAMK4 expressed in baculovirus infected Sf9 cells assessed as change in enzyme activity at 1 uM in presence of 2 uM ATP relative to control; design: scale not given: the % may be the effect or the level left
[8] = Oral bioavailability in mouse at 10 mg/kg; type: ADME, organism-based; conditions: in vivo
[9] = target: Serine/threonine-protein kinase B-raf (Homo sapiens) (UniProt P15056); assay: Inhibition of recombinant human full length N-terminal GST-tagged BRAF expressed in baculovirus infected Sf9 cells assessed as change in enzyme activity at 1 uM in presence of 1 uM ATP relative to control; design: scale not given: the % may be the effect or the level left
[10] = target: Inhibitor of nuclear factor kappa-B kinase subunit beta (Homo sapiens) (UniProt O14920); assay: Inhibition of recombinant human N-terminal GST-tagged IKKbeta expressed in baculovirus infected Sf9 cells assessed as change in enzyme activity at 1 uM in presence of 1 uM ATP relative to control; design: scale not given: the % may be the effect or the level left
[11] = target: Homeodomain-interacting protein kinase 4 (Homo sapiens) (UniProt Q8NE63); assay: Inhibition of recombinant human full length N-terminal GST-tagged HIPK4 expressed in baculovirus infected Sf9 cells assessed as change in enzyme activity at 1 uM in presence of 2 uM ATP relative to control; design: scale not given: the % may be the effect or the level left
[12] = target: Vascular endothelial growth factor receptor 3 (Homo sapiens) (UniProt P35916); assay: Inhibition of recombinant human N-terminal GST-tagged FLT4 (800 to end residues) expressed in baculovirus infected Sf9 cells assessed as change in enzyme activity at 1 uM in presence of 2 uM ATP relative to control; design: scale not given: the % may be the effect or the level left
[13] = target: Interleukin-1 receptor-associated kinase 4 (Homo sapiens) (UniProt Q9NWZ3); assay: Inhibition of recombinant human full length N-terminal GST-tagged IRAK4 expressed in baculovirus infected Sf9 cells assessed as change in enzyme activity at 1 uM in presence of 2 uM ATP relative to control; design: scale not given: the % may be the effect or the level left
Mus musculus = assay: Ex-vivo inhibition of BTK in C57BL/6J mouse assessed as anti-mouse IgD antibody stimulated BCR mediated CD69 level in whole blood isolated from 30 mg/kg, po bid treated mouse measured after 24 hrs post first dose by flow cytometry relative to control; type: functional; design: scale not given: the % may be the effect or the level left
[14] = target: Ephrin type-A receptor 3 (Homo sapiens) (UniProt P29320); assay: Inhibition of recombinant human N-terminal GST-tagged EPHA3 (571 to end residues) expressed in baculovirus infected Sf9 cells assessed as change in enzyme activity at 1 uM in presence of 2 uM ATP relative to control; design: scale not given: the % may be the effect or the level left
[15] = target: Tyrosine-protein kinase BTK (Mus musculus, UniProt P35991); assay: Inhibition of mouse BTK assessed as decrease in anti-CD3epsilon antibody stimulated TCR mediated CD69 upregulation in whole blood preincubated for 1 hr followed by antibody challenge after 4 hrs by flow cytometry
[16] = target: Serine/threonine-protein kinase VRK1 (Homo sapiens) (UniProt Q99986); assay: Inhibition of recombinant human full length N-terminal GST-tagged VRK1 expressed in baculovirus infected Sf9 cells assessed as change in enzyme activity at 1 uM in presence of 2 uM ATP relative to control; design: scale not given: the % may be the effect or the level left
[17] = target: Casein kinase I isoform alpha (Homo sapiens) (UniProt P48729); assay: Inhibition of recombinant human full length N-terminal GST-tagged CK1alpha1 expressed in baculovirus infected Sf9 cells assessed as change in enzyme activity at 1 uM in presence of 1 uM ATP relative to control; design: scale not given: the % may be the effect or the level left
[18] = target: Ribosomal protein S6 kinase (Homo sapiens) (UniProt P51812+Q9UBS0+O75676+Q15349+O75582+P23443+Q9UK32+Q15418); assay: Inhibition of recombinant human full length N-terminal GST-tagged p70S6K expressed in baculovirus infected Sf9 cells assessed as change in enzyme activity at 1 uM in presence of 2 uM ATP relative to control; design: scale not given: the % may be the effect or the level left
[19] = target: Tyrosine-protein kinase Blk (Homo sapiens) (UniProt P51451); assay: Inhibition of recombinant human full length N-terminal GST-tagged BLK expressed in baculovirus infected Sf9 cells assessed as change in enzyme activity at 1 uM in presence of 1 uM ATP relative to control; design: scale not given: the % may be the effect or the level left
[20] = target: Tyrosine-protein kinase ZAP-70 (Homo sapiens) (UniProt P43403); assay: Inhibition of recombinant human full length N-terminal GST-tagged ZAP70 expressed in baculovirus infected Sf9 cells assessed as change in enzyme activity at 1 uM in presence of 2 uM ATP relative to control; design: scale not given: the % may be the effect or the level left
[21] = target: cAMP-dependent protein kinase catalytic subunit alpha (Homo sapiens) (UniProt P17612); assay: Inhibition of recombinant human full length N-terminal GST-tagged PKACalpha expressed in baculovirus infected Sf9 cells assessed as change in enzyme activity at 1 uM in presence of 1 uM ATP relative to control; design: scale not given: the % may be the effect or the level left
[22] = target: Cytoplasmic tyrosine-protein kinase BMX (Homo sapiens) (UniProt P51813); assay: Inhibition of recombinant full length N-terminal GST-tagged BMX (unknown origin) expressed in baculovirus infected Sf9 cells assessed as change in enzyme activity at 1 uM in presence of 2 uM ATP relative to control; design: scale not given: the % may be the effect or the level left
[23] = target: Insulin-like growth factor 1 receptor (Homo sapiens) (UniProt P08069); assay: Inhibition of recombinant human N-terminal His tagged IGF1R (960 to end residues) expressed in baculovirus infected Sf9 cells assessed as change in enzyme activity at 1 uM in presence of 2 uM ATP relative to control; design: scale not given: the % may be the effect or the level left
[24] = target: Tyrosine-protein kinase BTK (Homo sapiens, UniProt Q06187); assay: Inhibition of recombinant human full length BTK preincubated for 10 mins followed by Tk-biotin peptide substrate addition after 90 mins by TR-FRET assay
Sequence of Tyrosine-protein kinase BTK (Homo sapiens, UniProt Q06187) (Q06187 whole entry): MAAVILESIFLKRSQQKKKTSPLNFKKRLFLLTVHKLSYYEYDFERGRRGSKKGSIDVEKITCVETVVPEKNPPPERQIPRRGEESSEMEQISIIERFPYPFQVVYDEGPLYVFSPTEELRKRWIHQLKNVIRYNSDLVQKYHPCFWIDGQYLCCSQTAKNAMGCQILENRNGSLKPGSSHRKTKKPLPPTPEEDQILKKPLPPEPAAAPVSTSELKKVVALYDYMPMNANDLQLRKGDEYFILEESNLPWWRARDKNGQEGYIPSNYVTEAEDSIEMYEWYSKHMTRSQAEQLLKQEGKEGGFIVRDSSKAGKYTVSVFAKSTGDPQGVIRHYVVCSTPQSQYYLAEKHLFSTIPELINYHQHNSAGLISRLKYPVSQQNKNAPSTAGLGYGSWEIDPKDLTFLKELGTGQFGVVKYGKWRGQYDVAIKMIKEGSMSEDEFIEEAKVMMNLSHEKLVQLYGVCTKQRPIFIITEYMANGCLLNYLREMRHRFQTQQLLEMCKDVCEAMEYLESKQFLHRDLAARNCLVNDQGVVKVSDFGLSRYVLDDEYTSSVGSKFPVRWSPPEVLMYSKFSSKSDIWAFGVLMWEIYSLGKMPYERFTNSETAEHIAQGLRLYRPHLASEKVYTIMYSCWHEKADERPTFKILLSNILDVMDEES

Sequence of Dual specificity mitogen-activated protein kinase kinase 1 (Homo sapiens) (Q02750 whole entry): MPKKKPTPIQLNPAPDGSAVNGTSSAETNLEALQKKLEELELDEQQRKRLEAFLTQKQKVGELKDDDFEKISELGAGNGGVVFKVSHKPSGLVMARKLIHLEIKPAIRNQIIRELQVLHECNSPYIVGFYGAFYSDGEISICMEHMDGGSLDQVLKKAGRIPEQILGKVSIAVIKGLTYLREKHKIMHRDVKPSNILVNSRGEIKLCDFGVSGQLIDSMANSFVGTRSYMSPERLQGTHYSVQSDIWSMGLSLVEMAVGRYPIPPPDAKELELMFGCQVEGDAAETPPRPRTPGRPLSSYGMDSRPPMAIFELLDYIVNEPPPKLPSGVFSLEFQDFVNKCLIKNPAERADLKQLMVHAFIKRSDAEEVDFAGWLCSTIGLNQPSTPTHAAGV
Sequence of Calcium/calmodulin-dependent protein kinase type IV (Homo sapiens) (Q16566 whole entry): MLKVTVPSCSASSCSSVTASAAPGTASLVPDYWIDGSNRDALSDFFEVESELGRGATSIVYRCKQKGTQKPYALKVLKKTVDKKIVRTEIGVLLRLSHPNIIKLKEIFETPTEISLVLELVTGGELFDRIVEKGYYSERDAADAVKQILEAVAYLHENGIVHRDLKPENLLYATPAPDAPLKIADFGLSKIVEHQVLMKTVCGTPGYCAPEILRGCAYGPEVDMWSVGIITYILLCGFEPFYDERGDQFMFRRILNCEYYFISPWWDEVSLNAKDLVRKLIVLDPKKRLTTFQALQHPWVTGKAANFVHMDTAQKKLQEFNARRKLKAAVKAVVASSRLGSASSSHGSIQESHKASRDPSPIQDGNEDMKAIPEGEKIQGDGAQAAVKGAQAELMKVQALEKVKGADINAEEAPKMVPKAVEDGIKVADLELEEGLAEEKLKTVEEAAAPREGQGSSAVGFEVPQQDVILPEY
Sequence of Mitogen-activated protein kinase 3 (Homo sapiens) (P27361 whole entry): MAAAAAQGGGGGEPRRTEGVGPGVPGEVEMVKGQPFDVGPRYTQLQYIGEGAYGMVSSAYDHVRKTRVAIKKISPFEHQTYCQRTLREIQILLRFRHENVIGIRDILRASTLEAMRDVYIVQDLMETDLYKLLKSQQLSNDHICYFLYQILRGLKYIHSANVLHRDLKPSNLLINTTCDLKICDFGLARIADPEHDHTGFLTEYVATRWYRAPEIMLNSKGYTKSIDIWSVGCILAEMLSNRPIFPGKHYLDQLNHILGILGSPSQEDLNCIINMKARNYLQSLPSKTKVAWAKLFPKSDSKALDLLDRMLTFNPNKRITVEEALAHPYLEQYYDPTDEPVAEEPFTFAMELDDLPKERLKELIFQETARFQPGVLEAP
Sequence of Vascular endothelial growth factor receptor 3 (Homo sapiens) (P35916 whole entry): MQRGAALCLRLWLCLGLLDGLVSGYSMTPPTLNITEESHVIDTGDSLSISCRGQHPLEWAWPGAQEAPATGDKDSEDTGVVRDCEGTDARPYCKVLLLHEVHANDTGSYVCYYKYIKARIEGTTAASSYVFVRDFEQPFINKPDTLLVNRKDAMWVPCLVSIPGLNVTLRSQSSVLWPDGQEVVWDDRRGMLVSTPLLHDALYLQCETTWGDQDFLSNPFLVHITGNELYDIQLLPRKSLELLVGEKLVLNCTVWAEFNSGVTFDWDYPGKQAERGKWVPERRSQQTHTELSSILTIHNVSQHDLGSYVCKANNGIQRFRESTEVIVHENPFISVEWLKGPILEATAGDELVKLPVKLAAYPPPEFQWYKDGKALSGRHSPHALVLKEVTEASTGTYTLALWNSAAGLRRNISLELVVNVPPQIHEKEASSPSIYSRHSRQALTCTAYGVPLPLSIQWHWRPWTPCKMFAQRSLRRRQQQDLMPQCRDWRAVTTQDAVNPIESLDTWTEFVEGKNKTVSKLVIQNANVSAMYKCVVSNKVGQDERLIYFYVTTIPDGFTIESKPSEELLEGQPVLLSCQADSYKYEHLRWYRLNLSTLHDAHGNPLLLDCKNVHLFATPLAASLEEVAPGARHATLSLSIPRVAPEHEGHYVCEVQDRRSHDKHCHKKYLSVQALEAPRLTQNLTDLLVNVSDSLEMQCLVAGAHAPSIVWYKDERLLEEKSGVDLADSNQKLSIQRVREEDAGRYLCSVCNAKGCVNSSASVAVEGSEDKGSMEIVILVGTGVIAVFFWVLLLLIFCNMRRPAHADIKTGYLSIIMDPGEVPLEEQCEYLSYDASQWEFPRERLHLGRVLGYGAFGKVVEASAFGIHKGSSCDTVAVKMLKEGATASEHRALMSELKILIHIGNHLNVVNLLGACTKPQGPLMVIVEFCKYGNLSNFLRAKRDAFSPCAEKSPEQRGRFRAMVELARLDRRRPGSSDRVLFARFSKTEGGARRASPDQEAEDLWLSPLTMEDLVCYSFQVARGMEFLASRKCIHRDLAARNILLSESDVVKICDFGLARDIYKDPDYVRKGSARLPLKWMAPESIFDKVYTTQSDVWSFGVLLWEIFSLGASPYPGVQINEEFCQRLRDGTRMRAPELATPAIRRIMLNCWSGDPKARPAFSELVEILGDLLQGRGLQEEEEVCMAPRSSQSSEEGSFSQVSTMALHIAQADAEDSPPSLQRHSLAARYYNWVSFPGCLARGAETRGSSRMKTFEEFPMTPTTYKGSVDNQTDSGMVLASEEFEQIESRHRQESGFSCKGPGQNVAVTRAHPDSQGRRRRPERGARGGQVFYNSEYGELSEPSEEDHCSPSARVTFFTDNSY
Sequence of Mitogen-activated protein kinase kinase kinase 1 (Homo sapiens) (Q13233 whole entry): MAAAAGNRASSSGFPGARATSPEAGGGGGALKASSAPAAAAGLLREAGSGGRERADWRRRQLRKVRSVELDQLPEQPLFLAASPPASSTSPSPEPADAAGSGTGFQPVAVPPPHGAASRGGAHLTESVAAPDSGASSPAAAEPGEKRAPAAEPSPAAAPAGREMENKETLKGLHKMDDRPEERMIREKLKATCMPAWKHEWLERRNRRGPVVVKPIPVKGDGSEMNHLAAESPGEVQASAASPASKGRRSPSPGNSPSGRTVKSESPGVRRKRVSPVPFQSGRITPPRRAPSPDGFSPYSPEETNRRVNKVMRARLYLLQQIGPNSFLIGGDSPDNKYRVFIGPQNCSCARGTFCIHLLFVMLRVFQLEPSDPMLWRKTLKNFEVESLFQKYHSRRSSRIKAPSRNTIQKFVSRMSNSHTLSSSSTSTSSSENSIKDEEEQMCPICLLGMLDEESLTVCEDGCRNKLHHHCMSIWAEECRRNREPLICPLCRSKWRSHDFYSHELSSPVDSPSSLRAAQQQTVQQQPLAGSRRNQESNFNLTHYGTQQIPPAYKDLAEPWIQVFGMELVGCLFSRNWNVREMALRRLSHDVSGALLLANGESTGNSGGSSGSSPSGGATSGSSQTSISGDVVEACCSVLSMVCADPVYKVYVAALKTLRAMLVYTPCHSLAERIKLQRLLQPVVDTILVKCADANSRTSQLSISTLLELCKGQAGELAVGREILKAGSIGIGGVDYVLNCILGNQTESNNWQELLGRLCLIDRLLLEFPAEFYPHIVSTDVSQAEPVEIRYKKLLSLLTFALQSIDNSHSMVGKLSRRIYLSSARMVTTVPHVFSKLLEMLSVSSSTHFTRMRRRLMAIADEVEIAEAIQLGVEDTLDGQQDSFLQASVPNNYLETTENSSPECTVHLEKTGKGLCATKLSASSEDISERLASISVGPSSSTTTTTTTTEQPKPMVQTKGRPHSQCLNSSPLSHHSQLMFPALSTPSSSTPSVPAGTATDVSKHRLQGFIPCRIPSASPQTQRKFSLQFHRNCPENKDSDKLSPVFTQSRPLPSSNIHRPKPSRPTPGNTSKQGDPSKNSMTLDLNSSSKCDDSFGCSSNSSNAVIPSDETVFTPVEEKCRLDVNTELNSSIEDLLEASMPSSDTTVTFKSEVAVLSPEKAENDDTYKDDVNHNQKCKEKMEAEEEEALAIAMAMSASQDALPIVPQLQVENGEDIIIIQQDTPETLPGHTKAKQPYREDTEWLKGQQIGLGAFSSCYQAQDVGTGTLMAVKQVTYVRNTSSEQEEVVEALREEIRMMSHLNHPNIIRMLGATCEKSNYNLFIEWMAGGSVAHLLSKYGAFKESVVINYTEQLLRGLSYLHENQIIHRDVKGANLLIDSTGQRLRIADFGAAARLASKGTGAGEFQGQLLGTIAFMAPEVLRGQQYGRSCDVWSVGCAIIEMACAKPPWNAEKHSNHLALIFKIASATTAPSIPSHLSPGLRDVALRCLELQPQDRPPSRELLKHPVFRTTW

| Compound | Activity [1] [%] | IC50 [2] [nM] | Activity [3] [%] | solubility thermodynamic [4] [µM] | Activity [5] [%] | Activity [6] [%] | Activity [7] [%] | bioavailability [8] [%] | Activity [9] [%] | Activity [10] [%] | Activity [11] [%] | Activity [12] [%] | Activity [13] [%] | Activity (Mus musculus) [%] | Activity [14] [%] | IC50 [15] [nM] | Activity [16] [%] | Activity [17] [%] | Activity [18] [%] | Activity [19] [%] | other results |
| --- | --- | --- | --- | --- | --- | --- | --- | --- | --- | --- | --- | --- | --- | --- | --- | --- | --- | --- | --- | --- | --- |
| O=C1c2c(F)cc(C3CC3)cc2OCCN1c1cccc(-c2ccnc3[nH]c(C4=CCN(C5COC5)CC4)cc23)c1CO | -9 | 4680 | 1 | 31 (≈ 18 µg/mL) | 3 | -20 | 1 | 49 | -6 | 1 | 3 | -3 | 2 | 9.5 | -3 | > 30000 | -8 | 0 | -28 | 3 | Activity [20]: -1%; Activity [21]: 0%; Activity [22]: -10%; Activity [23]: -6%; IC50 [24]: 3.1 nM |
| CCN1CCN(Cc2ccc(-c3cc4c(-c5cccc(N6CCOc7cc(C8CC8)cc(F)c7C6=O)c5CO)ccnc4[nH]3)nc2)CC1 | -5 | 1550 | 2 | 15 (≈ 9.7 µg/mL) | 2 | -14 | -5 | 51 | 1 | 0 | 1 | -3 | -3 | 47 | -2 | 5060 | 1 | -1 | 2 | 1 | Activity [20]: 1%; Activity [21]: -2%; Activity [22]: -49%; Activity [23]: 4%; IC50 [24]: 2.6 nM |

From ChEMBL document CHEMBL4177534, “Discovery and evaluation of 1H-pyrrolo[2,3-b]pyridine based selective and reversible small molecule BTK inhibitors for the treatment of rheumatoid arthritis” (Bioorg Med Chem Lett, 2017)
